According to patent publication US20210008161A1, “METHODS AND COMPOSITIONS FOR IMPROVED HOMOLOGY DIRECTED REPAIR” (CRISPR THERAPEUTICS AG, priority 2019, published 2021):

Legend:
[1] = tested on: HEK293 T cells; assay: BFP to GFP fluorescent reporter assay of HDR efficiency (AAVS1 locus); format: cell-based, human; settings: different concentrations/doses, FIG. 1B, 1C
Experimental: An in vitro assay was conducted to determine the ability of various inhibitors and enhancers to improve the efficiency of HDR repair in HEK293 T cells. Specifically, a fluorescent reporter-based screening approach was developed to identify molecules that enhance gene-editing by HDR. A reporter system was generated in HEK293 T cells comprising a genomic AAVS1 locus that encoded either a blue fluorescent protein (BFP) or a green fluorescent protein (GFP) within the AAVS1 locus. A gene encoding BFP can be converted to a gene encoding GFP by substitution of cytosine at position 199 to uridine (e.g., a C to U transition at position 199). By introducing a DSB within the BFP gene using a CRISPR/Cas9 gene-editing system, a homology donor DNA encoding the nucleotide substitution can be used to edit the BFP gene to a GFP gene by HDR repair. Thus, a gene edit that induces a C to U transition at position 199 results in a change in cellular fluorescence. A change in the fluorescence of the cell measured by flow cytometry can be used to quantify efficiency of HDR repair. Additionally, the reverse gene edit can be performed for an AAVS1 locus encoding a GFP gene, wherein a GFP can be converted to BFP by substitution of uridine at position 199 to cytosine.
To create the reporter system, an AAV-based homology donor DNA encoding either BFP or GFP was created. The AAV-BFP or AAV-GFP donor was flanked by homology arms that were 1000 base pairs in length and expression of BFP or GFP was driven by the MND promoter (e.g., a synthetic promoter that contains the U3 region of a modified Moloney murine leukemia virus long term terminal repeat with myeloproliferative sarcoma virus enhancer and deleted negative control region, SEQ ID NO: 58). The viral DNA was packaged into capsids of adeno-associated virus serotype 6 (AAV6) vector. Either the BFP or GFP donor was introduced using the AAV6 vector into the AAVS1 locus in HEK293 T cells by homologous recombination using CRISPR-Cas9 as follows: purified Cas9 protein was complexed with two different single gRNAs (sgRNAs) targeting the AAVS1 locus at SEQ ID NO: 3 (spacer sequence identified by SEQ ID NO: 4; gRNA obtained from Maxcyte) or SEQ ID NO: 5 (spacer sequence identified by SEQ ID NO: 6; gRNA obtained from Thermo Fisher). Cas9 protein used in the Exemplary section provided herein refers to Cas9 polypeptide derived from S. pyogenes (SpCas9), unless indicated otherwise.
The Cas9-sgRNA complex was electroporated into the HEK293 T cells using the Lonza Nucleofector program CM-130. Approximately, 2 hours after electroporation, the cells were infected with various viral doses of AAV6 encoding a BFP (SEQ ID NO: 44) or GFP homology donor (SEQ ID NO: 47). One week later, cells were analyzed by flow cytometry to verify integration and expression of BFP or GFP in the AAVS1 locus. HEK293 T cells expressing BFP or GFP were sorted into single cells in 96-well plates. After ˜2 weeks of growth, DNA extracted from individual cells was analyzed for precise integration of the respective BFP or GFP gene into the AAVS1 locus by long-range PCR. This PCR analysis allowed for determination of whether the BFP/GFP gene was integrated in one or both alleles of the AAVS1 locus.
To introduce a gene edit that converts BFP to GFP, cells were electroporated with ribonucleoprotein (RNP) comprised of Cas9 and sgRNA that targets the BFP gene encoded in the AAVS1 locus. The sgRNA targeted a sequence in the BFP gene identified by SEQ ID NO: 7 (sgRNA spacer sequence identified by SEQ ID NO: 8). The sgRNA were prepared using a standard sgRNA cassette specific to SpCas9, as indicated by SEQ ID NO: 2 (wherein a, c, g, u represent 2′ O-methyl phosphorothioate nucleotides; s represents phosphorothioate nucleotides; and A, C, G, U, N represent canonical RNA nucleotides). The gRNAs used in the Exemplary section provided herein were sgRNAs prepared with the SpCas9 sgRNA cassette unless indicated otherwise. […]

[2] = tested on: CD34-expressing LT-HSPCs; assay: HDR insertion of AAV-delivered GFP donor into HBB locus (GFP fluorescence); format: cell-based, human; settings: HBB locus in LT-HSPCs; any dose tested; data not shown
Experimental: Frozen CD34-expressing LT-HSPCs derived from plerixafor (i.e., Mozibil®)+GCSF-dual mobilized peripheral blood obtained from healthy human donors were purchased from a commercial vendor. LT-HSPCs were maintained in culture media comprised of the reagents shown in Table 4 and were incubated at 37° C., 5% carbon dioxide, 4% oxygen. […] 2×10^5 cells were edited with 3 μg Cas9 and 3 μg gRNA. The target gene sequence (including target sequence with PAM), R02 spacer sequence, and R02 sgRNA sequence are identified in Table 3.
The cells were transfected with a dsDNA homology donor encoding GFP under a SFFV promoter (SEQ ID NO: 60) that was delivered by AAV (SEQ ID NO: 56). […] The HDR efficiency was determined by measuring the level of GFP fluorescence in the cells following electroporation. To determine the effect of 53BP1 inhibition on HDR efficiency, the 53BP1 inhibitor i53 was introduced as an mRNA-encoded protein to the cells during electroporation with Cas9/gRNA RNP and AAV DNA that serves as a donor for homology directed repair.
The effect of 53BP1 inhibition on HDR efficiency was compared to other mRNA-encoded proteins that inhibit the NHEJ pathway. These included the proteins CYREN1 and CYREN2 that inhibit Ku70/80, a heterodimer that binds DNA blunt ends to prevent processing of 3′ single-stranded DNA tails necessary for HDR repair. Cells were electroporated with RNP, an AAV-GFP homology donor and mRNA encoding either i53 (mRNA ORF shown in SEQ ID NO: 69), CYREN1, or CYREN2.
The effect of treatment with i53 and Nu7441 was compared for improving efficiency of HDR repair of the HBB locus. Cells were treated with different doses of Nu7441 or with mRNA encoding i53 (ORF shown by SEQ ID NO: 69).

Question: With CCCCCCNC(=O)Nc1ccc(S(=O)(=O)Nc2ccc(CCNC[C@H](O)COc3ccc(O)cc3)cc2)cc1 [L755,507] as the molecule, how does the HDR efficiency [1] read?
Answer: no improvement

Question: With C[C@]1(c2nc3c(C(N)=O)cccc3[nH]2)CCCN1 [Veliparib] as the molecule, how does the HDR efficiency [1] read?
Answer: no improvement

Question: Which HDR efficiency [2] does the source give for Cl.O=c1[nH]c([C@@H]2CCCN2)nc2c1oc1ccc(Cl)cc12 [XL 413, reference compound] here?
Answer: no improvement
